# According to US5837479A, “Screening assays for inhibitors of mammalian prostaglandin H synthase-2” (priority 1995, dated 1998):
# Read-outs that look alike come from different tables or passages of the source.
# Tests used:
# [1] = test system: human PGHS-2 (versus human PGHS-1); assay: NSAID inhibition of human PGHS-2 activity in stably transformed COS cells (4B4), compared with human PGHS-1 cells (H17A5); type: cell-based; conditions: 30 min preincubation, 15 min arachidonic acid; FIGS. 8A-8D and 9A-9D
# Protocol: PGHS-1 and PGHS-2 cell lines (including 4B4 and H17A5) were exposed to various concentrations of NSAID for 30 min in serum-free DMEM. […] Controls consisted of no drug treatment and cells treated with the maximal concentrations of drug vehicles (1% methanol or ethanol). […] Cyclooxygenase activity was determined as described herein above.
# colorectal carcinoma = conditions: several clinical trials; cited from earlier work
# COS cells = assay: toxicity to COS cells; type: cell-based, monkey; conditions: 800 μg/ml Geneticin (active component 657 μg/ml)
# Protocol: Sixty-mm plates of 50% confluent COS-A2 (monkey-kidney) cells, which contain little or no cyclooxygenase activity were transfected with 1-2.5 μg of purified pRC/CMV;hPGHS-2 plasmid, pRC/CMV;hPGHS-1 plasmid or the PRC/CMV vector alone by a calcium phosphate precipitation method (Chen et al., 1987, Mol. Cell. Biol., 7:2745-2752. Plates were incubated at 35° C., 3% CO2 for 24 hr in normal media (Dulbecco's modified Eagle Media (DMEM)+10% fetal bovine serum). After two rinses with warm DMEM, plates were transferred to 37° C., 5% CO2 for an additional 24 hr. Selection was then started with normal media containing 800 μg/ml of Geneticin (active component G418, 657 μg/ml, Life Technologies), a concentration which is toxic for COS cells. […] Twelve to twenty-four colonies from each transfection were isolated using cloning cylinders. The majority of these survived continued G418 selection during clonal cell-line expansion.
# [2] = test system: 2.8-kb PGHS mRNA (PGHS-1), human monocytes; type: cell-based
# Protocol: (§1) FIGS. 3A-3B are a photographic depiction of autoradiographies obtained by Northern blotting monitoring the expression of the genes encoding griPGHS and the constitutive PGHS-1, as expressed in human monocytes, in response to interleukin-1 treatment, a known mediator of inflammation. Adherent human monocytes isolated from healthy donors were suspended in medium without serum at 1×10^6 cells/ml. One ml aliquots in 5 ml polypropylene tubes were incubated with loosened caps in 5% CO2 at 37° C. with occasional shaking. FIGS. 3A-3B are more fully described as follows:
# (§2) Five μg was subjected to Northern blot analysis with the indicated probes.
# (§3) Cycloheximide (25 μM) was added to one set of incubations 15 min prior to he addition of cytokine or hormone.
# (§4) Poly-A enriched RNAs (2.5 μg) from C127 cells were fractionated by formaldehyde-agarose gel electrophoresis and transferred to a membrane (Duralon, Stratagene). Hybridization was carried out as previously described by O'Banion et al., 1991, J. Virol., 65:3481-3488, using the 5' 1.2 kb EcoR1 fragment of the 4.1 kb cDNA labeled with ^32 P by random priming as disclosed by Feinberg et al., 1983, Anal. Biochem., 132:6-13. The membrane was later rehybridized with a similarly labeled portion (1.6 kb 5' end) of the 2.8 kb ovine PGHS cDNA (Oxford Biomedical Research, Inc.), and an end-labeled 40-mer complimentary to β-tubulin (Oncor). RNA molecular weight markers (Life Technologies) were visualized by ethidium bromide staining. A similar analysis was performed on total RNA (5 µg/lane) isolated from human monocytes by the guanidinium-acid-phenolextraction method of Chomczynski et al., 1987, Anal. Biochem., 162:156-159.
# (§5) Adherent human monocytes isolated from healthy donors as described by Roberts et al., 1978, J. Immunol, 121:1052-1058, were suspended in M199 medium without serum at 1×10^6 cells/ml. One ml aliquots in 5 ml polypropylene tubes were incubated with loosened caps in 5% CO2 at 37° C. with occasional shaking. […] Five μg RNA was subjected to Northern blot analysis as described by O'Banion et al., 1991, J. Biol. Chem., 34:23261-23267 with the indicated probes labeled by random priming (kit from Boehringer-Mannheim) to a specific activity >1×10^9 cpm/μg. […] Cycloheximide (25 μM; Sigma) was added to one set of incubations 15 min prior to the addition of cytokine or hormone.
# [3] = test system: griPGHS mRNA (4.8-kb mRNA), human monocytes; type: cell-based; conditions: for griPGHS mRNA increase relative to control: IL-1β 10 half-maximal units
# Protocol: as §1, §2, §3, §4, §5
# [4] = test system: PGHS-2 expression, astrocytes; conditions: cultured murine and rat astrocytes; cited from earlier work
# [5] = test system: 2.8-kb mRNA encoding PGHS-1; assay: level of 2.8-kb PGHS-1 mRNA in C127 mouse fibroblasts; type: cell-based; conditions: C127 cells
# [6] = test system: C127 mouse fibroblasts (protein synthesis); assay: inhibition of protein synthesis in C127 mouse fibroblasts; type: cell-based; conditions: C127, 0.25 h, within 15 min
# Text: C127 mouse fibroblasts were obtained from Peter Howley (NIH) and propagated in high glucose Dulbecco's modified Eagle's medium supplemented with 10% fetal bovine serum (HyClone Laboratories) without antibiotics. See, Lowy et al., 1978, J. Virol., 26:291-298. Cultures were monitored for mycoplasma contamination by Hoechst 33258 staining in accord with the procedure of Chen, 1977, Exp. Cell Res., 104:255-262.
# Exponentially growing, subconfluent (60-80%) cell monolayers (35-mm plates) were labeled in Dulbecco's modified Eagle's medium without methionine (Life Technologies) plus 200 μCi/ml Tran^35 S-label (>1,000 Ci/mmol; ICN) for 15 or 30 min. In some cases, fresh fetal calf serum (10%) was present during the labeling period. Monolayers were rinsed twice with ice-cold Dulbecco's modified Eagle's medium (DMEM) with methionine prior to lysis in 200 μl of A8 buffer (9.5M urea, 2% (w/v) Nonidet P-40, 2% (w/v) ampholines (LKB, 1.6% pH range 5-8, 04. % pH range 3.5-10), 5% (w/v) 2-mercaptoethanol). Incorporation of label into proteins was determined by trichloroacetic acid precipitation. […] The calcium ionophore A23187 (Calbiochem) was used at a concentration of 5 μM from a 2.5 mM stock in ethanol. Cycloheximide (Sigma) was used at a concentration of 25 μM from a 100 X stock in water. This level inhibited protein synthesis by >97% within 15 min. […]
# 4-kb mRNA (PGHS-2) = assay: level of 4-kb PGHS-2 mRNA in C127 mouse fibroblasts; type: cell-based; conditions: C127 cells
# Text: Three of four potential N-glycosylation sites are conserved between the two molecules and there is particularly high similarity in the regions surrounding a putative axial heme-binding domain (amino acids 273-342) and the region around the presumed aspirin modified-serine^516 (amino acids 504-550). By far the largest difference in the two cDNAs is the presence of a 2.1 kb 3' untranslated region in the 4.1 kb cDNA. This region is rich in 5'-AUUUA-3' motifs that are associated with the decreased stability of many cytokine and protooncogene mRNAs. The presence of these motifs is consistent with the profound superinducibility of the 4.1 kb mRNA by cycloheximide, which is not observed for the 2.8 kb mRNA.
# [7] = test system: familial polyposis (colon polyps); conditions: patients with familial polyposis; cited from earlier work
# [8] = test system: 72-74 kDa protein doublet, BALB/c 3T3 fibroblasts; conditions: cited from earlier work
# preterm labor = conditions: in vivo; cited from earlier work
# [9] = test system: cystic fibrosis lung disease; conditions: high-dose, cystic fibrosis patients; cited from earlier work
compound,measurement,setting,value
CC(=O)Oc1ccccc1C(=O)O [aspirin],"levels of drug required for inhibition, PGHS-1 versus PGHS-2 cells",[1],different for the cells expressing PGHS-1 versus those expressing PGHS-2
same,colon tumor growth and death,colorectal carcinoma,decreased colon tumor growth and death
CN[C@@H]1[C@@H](O)[C@@H](O[C@@H]2[C@@H](O)[C@H](O[C@H]3O[C@H]([C@@H](C)O)[C@@H](O)[C@H](O)[C@H]3N)[C@@H](N)C[C@H]2N)OC[C@]1(C)O [G418],toxicity for COS cells,COS cells,toxic
"IL-1β: IL-1β (10 half-maximal units, Collaborative Research), a known mediator of inflammation",levels of 2.8-kb mRNA relative to β-tubulin,[2],not significantly altered
same,griPGHS mRNA increase relative to control,[3]; 4 hr,2.5 fold
same,griPGHS mRNA increase relative to control,[3]; 12 hr,14 fold
same,regulation of PGHS-2 expression in astrocytes,[4],strongly up-regulated
same,time of peak PGHS-2 mRNA level,[4],2 h
C[C@@H]1C[C@H]2[C@@H]3CCC4=CC(=O)C=C[C@]4(C)[C@@]3(F)[C@@H](O)C[C@]2(C)[C@@]1(O)C(=O)CO [dexamethasone],level of 2.8-kb PGHS mRNA,"[2]; 4 hr, normalized to β-tubulin",not affected
same,change in 2.8-kb PGHS-1 mRNA level,[5],no change
C[C@@H]1C[C@@H]([C@H](O)CC2CC(=O)NC(=O)C2)C(=O)[C@@H](C)C1 [cycloheximide],levels of 2.8-kb mRNA relative to β-tubulin,"[2]; IL-1β, dexamethasone or cycloheximide treatment",not significantly altered
same,superinduction of 4.8-kb mRNA,"[3]; cycloheximide 25 μM, added 15 min before cytokine or hormone",superinduction of the 4.8-kb mRNA was clearly evident
same,inhibition at 25 µM,[6],> 97%
same,change in 2.8-kb PGHS-1 mRNA level,[5],no change
same,accumulation of 4-kb mRNA,4-kb mRNA (PGHS-2),accumulates to significant levels
TNFα,regulation of PGHS-2 expression in astrocytes,[4],strongly up-regulated
same,time of peak PGHS-2 mRNA level,[4],2 h
CC1=C(CC(=O)O)c2cc(F)ccc2/C1=C\c1ccc([S+](C)[O-])cc1 (stereo not shown) [Sulindac],colon polyp regression,[7],colon polyp regression
platelet-derived growth factor,synthesis of 72-74 kDa protein doublet,[8],transiently increased
COc1ccc2c(c1)c(CC(=O)O)c(C)n2C(=O)c1ccc(Cl)cc1 [indomethacin],"levels of drug required for inhibition, PGHS-1 versus PGHS-2 cells",[1],different for the cells expressing PGHS-1 versus those expressing PGHS-2
same,premature closure of the ductus arteriosus of the fetus,preterm labor,raises concern with premature closure of the ductus arteriosus
CC(C)Cc1ccc(C(C)C(=O)O)cc1 (stereo not shown) [ibuprofen],progression of lung disease,[9],slows the progression of lung disease
